Source: ChEMBL document CHEMBL5723584 (2023)
Activity calls are given as the source filed them. No cut-off for these calls is given here.

How the values were obtained:
[1] = molecular target: Mitogen-activated protein kinase 12 (Homo sapiens) (UniProt P53778); assay: activity of SAPK3(h) at 1.0 µM in the Eurofins Kinase panel; conditions: Compound concentration 1.0 uM
[2] = molecular target: Ribosomal protein S6 kinase alpha-6 (Homo sapiens) (UniProt Q9UK32); assay: activity of Rsk4(h) at 1.0 µM in the Eurofins Kinase panel; conditions: Compound concentration 1.0 uM
[3] = molecular target: Bone morphogenetic protein receptor type-1B (Homo sapiens) (UniProt O00238); assay: activity of ALK6(h) at 1.0 µM in the Eurofins Kinase panel; conditions: Compound concentration 1.0 uM
[4] = molecular target: Calcium/calmodulin-dependent protein kinase type 1 (Homo sapiens) (UniProt Q14012); assay: activity of CaMKI(h) at 1.0 µM in the Eurofins Kinase panel; conditions: Compound concentration 1.0 uM
[5] = molecular target: Non-receptor tyrosine-protein kinase TYK2 (Homo sapiens) (UniProt P29597); assay: activity of TYK2(h) at 1.0 µM in the Eurofins Kinase panel; conditions: Compound concentration 1.0 uM
[6] = molecular target: Phosphatidylinositol 5-phosphate 4-kinase type-2 alpha (Homo sapiens) (UniProt P48426); assay: activity of PIP4K2alpha(h) at 1.0 µM in the Eurofins Kinase panel; conditions: Compound concentration 1.0 uM
[7] = molecular target: Tau-tubulin kinase 2 (Homo sapiens) (UniProt Q6IQ55); assay: activity of TTBK2(h) at 1.0 µM in the Eurofins Kinase panel; conditions: Compound concentration 1.0 uM
[8] = molecular target: Angiopoietin-1 receptor (Homo sapiens) (UniProt Q02763); assay: activity of Tie2(h) at 1.0 µM in the Eurofins Kinase panel; conditions: Compound concentration 1.0 uM
[9] = molecular target: Serine/threonine-protein kinase 38 (Homo sapiens) (UniProt Q15208); assay: activity of NDR1(h) at 1.0 µM in the Eurofins Kinase panel; conditions: Compound concentration 1.0 uM
[10] = molecular target: Serine/threonine-protein kinase WNK2 (Homo sapiens) (UniProt Q9Y3S1); assay: activity of WNK2(h) at 1.0 µM in the Eurofins Kinase panel; conditions: Compound concentration 1.0 uM
[11] = molecular target: Calcium/calmodulin-dependent protein kinase type II subunit delta (Homo sapiens) (UniProt Q13557); assay: activity of CaMKIIdelta(h) at 1.0 µM in the Eurofins Kinase panel; conditions: Compound concentration 1.0 uM
[12] = molecular target: Mitogen-activated protein kinase 13 (Homo sapiens) (UniProt O15264); assay: activity of SAPK4(h) at 1.0 µM in the Eurofins Kinase panel; conditions: Compound concentration 1.0 uM
[13] = molecular target: Serine/threonine-protein kinase NIM1 (Homo sapiens) (UniProt Q8IY84); assay: activity of NIM1(h) at 1.0 µM in the Eurofins Kinase panel; conditions: Compound concentration 1.0 uM
[14] = molecular target: Myosin light chain kinase 2, skeletal/cardiac muscle (Homo sapiens) (UniProt Q9H1R3); assay: activity of MYLK2(h) at 1.0 µM in the Eurofins Kinase panel; conditions: Compound concentration 1.0 uM
[15] = molecular target: Protein kinase C beta type (Homo sapiens) (UniProt P05771); assay: activity of PKCbetaII(h) at 1.0 µM in the Eurofins Kinase panel; conditions: Compound concentration 1.0 uM
[16] = molecular target: Dual specificity protein kinase CLK3 (Homo sapiens) (UniProt P49761); assay: activity of CLK3(h) at 1.0 µM in the Eurofins Kinase panel; conditions: Compound concentration 1.0 uM
[17] = molecular target: Myotonin-protein kinase (Homo sapiens) (UniProt Q09013); assay: activity of DMPK(h) at 1.0 µM in the Eurofins Kinase panel; conditions: Compound concentration 1.0 uM
[18] = molecular target: Tyrosine-protein kinase Fes/Fps (Homo sapiens) (UniProt P07332); assay: activity of Fes(h) at 1.0 µM in the Eurofins Kinase panel; conditions: Compound concentration 1.0 uM
[19] = molecular target: TRAF2 and NCK-interacting protein kinase (Homo sapiens) (UniProt Q9UKE5); assay: activity of TNIK(h) at 1.0 µM in the Eurofins Kinase panel; conditions: Compound concentration 1.0 uM
[20] = molecular target: Serine/threonine-protein kinase WNK4 (Homo sapiens) (UniProt Q96J92); assay: activity of WNK4(h) at 1.0 µM in the Eurofins Kinase panel; conditions: Compound concentration 1.0 uM
[21] = molecular target: Serine-protein kinase ATM (Homo sapiens) (UniProt Q13315); assay: activity of ATM(h) at 1.0 µM in the Eurofins Kinase panel; conditions: Compound concentration 1.0 uM
[22] = molecular target: Dual specificity protein kinase CLK1 (Homo sapiens) (UniProt P49759); assay: activity of CLK1(h) at 1.0 µM in the Eurofins Kinase panel; conditions: Compound concentration 1.0 uM
[23] = molecular target: Maternal embryonic leucine zipper kinase (Homo sapiens) (UniProt Q14680); assay: activity of MELK(h) at 1.0 µM in the Eurofins Kinase panel; conditions: Compound concentration 1.0 uM
[24] = molecular target: CDK4/Cyclin D3 (Homo sapiens) (UniProt P11802+P30281); assay: activity of CDK4/cyclinD3(h) at 1.0 µM in the Eurofins Kinase panel; assay type: protein-complex assay; conditions: Compound concentration 1.0 uM
[25] = molecular target: cGMP-dependent protein kinase 1 (Homo sapiens) (UniProt Q13976); assay: activity of PKG1alpha(h) at 1.0 µM in the Eurofins Kinase panel; conditions: Compound concentration 1.0 uM
[26] = molecular target: Casein kinase I isoform gamma-3 (Homo sapiens) (UniProt Q9Y6M4); assay: activity of CK1gamma3(h) at 1.0 µM in the Eurofins Kinase panel; conditions: Compound concentration 1.0 uM
[27] = molecular target: Death-associated protein kinase 2 (Homo sapiens) (UniProt Q9UIK4); assay: activity of DAPK2(h) at 1.0 µM in the Eurofins Kinase panel; conditions: Compound concentration 1.0 uM
[28] = molecular target: MAP kinase-activated protein kinase 2 (Homo sapiens) (UniProt P49137); assay: activity of MAPKAP-K2(h) at 1.0 µM in the Eurofins Kinase panel; conditions: Compound concentration 1.0 uM
[29] = molecular target: CDC7/Cyclin B1 (Homo sapiens) (UniProt P14635+O00311); assay: activity of Cdc7/cyclinB1(h) at 1.0 µM in the Eurofins Kinase panel; assay type: protein-complex assay; conditions: Compound concentration 1.0 uM
[30] = molecular target: Tyrosine-protein kinase Yes (Homo sapiens) (UniProt P07947); assay: activity of Yes(h) at 1.0 µM in the Eurofins Kinase panel; conditions: Compound concentration 1.0 uM
[31] = molecular target: Proto-oncogene tyrosine-protein kinase Src (Homo sapiens) (UniProt P12931); assay: activity of cSRC(h) at 1.0 µM in the Eurofins Kinase panel; conditions: Compound concentration 1.0 uM
[32] = molecular target: Misshapen-like kinase 1 (Homo sapiens) (UniProt Q8N4C8); assay: activity of MINK(h) at 1.0 µM in the Eurofins Kinase panel; conditions: Compound concentration 1.0 uM
[33] = molecular target: [Pyruvate dehydrogenase (acetyl-transferring)] kinase isozyme 2, mitochondrial (Homo sapiens) (UniProt Q15119); assay: activity of PDHK2(h) at 1.0 µM in the Eurofins Kinase panel; conditions: Compound concentration 1.0 uM
[34] = molecular target: cAMP-dependent protein kinase catalytic subunit alpha (Homo sapiens, UniProt P17612); assay: Promega NanoBRET (PRKACA)
[35] = molecular target: Serine/threonine-protein kinase D3 (Homo sapiens) (UniProt O94806); assay: activity of PKD3(h) at 1.0 µM in the Eurofins Kinase panel; conditions: Compound concentration 1.0 uM
[36] = molecular target: T1, Citron Rho-interacting kinase (Homo sapiens, UniProt O14578); assay: NanoLuc NanoBRET (CITKD); conditions: read-out: Kd
[37] = molecular target: CDK3/Cyclin E (Homo sapiens) (UniProt P24864+Q00526); assay: activity of CDK3/cyclinE(h) at 1.0 µM in the Eurofins Kinase panel; assay type: protein-complex assay; conditions: Compound concentration 1.0 uM
[38] = molecular target: Serine/threonine-protein kinase 32C (Homo sapiens) (UniProt Q86UX6); assay: activity of STK32C(h) at 1.0 µM in the Eurofins Kinase panel; conditions: Compound concentration 1.0 uM
[39] = molecular target: T1, Citron Rho-interacting kinase; assay: Promega NanoBRET (CIT)
[40] = molecular target: Serine/threonine-protein kinase PLK2 (Homo sapiens) (UniProt Q9NYY3); assay: activity of Snk(h) at 1.0 µM in the Eurofins Kinase panel; conditions: Compound concentration 1.0 uM
Chain of Serine/threonine-protein kinase PLK2 (Homo sapiens) (Q9NYY3 whole entry, looked up): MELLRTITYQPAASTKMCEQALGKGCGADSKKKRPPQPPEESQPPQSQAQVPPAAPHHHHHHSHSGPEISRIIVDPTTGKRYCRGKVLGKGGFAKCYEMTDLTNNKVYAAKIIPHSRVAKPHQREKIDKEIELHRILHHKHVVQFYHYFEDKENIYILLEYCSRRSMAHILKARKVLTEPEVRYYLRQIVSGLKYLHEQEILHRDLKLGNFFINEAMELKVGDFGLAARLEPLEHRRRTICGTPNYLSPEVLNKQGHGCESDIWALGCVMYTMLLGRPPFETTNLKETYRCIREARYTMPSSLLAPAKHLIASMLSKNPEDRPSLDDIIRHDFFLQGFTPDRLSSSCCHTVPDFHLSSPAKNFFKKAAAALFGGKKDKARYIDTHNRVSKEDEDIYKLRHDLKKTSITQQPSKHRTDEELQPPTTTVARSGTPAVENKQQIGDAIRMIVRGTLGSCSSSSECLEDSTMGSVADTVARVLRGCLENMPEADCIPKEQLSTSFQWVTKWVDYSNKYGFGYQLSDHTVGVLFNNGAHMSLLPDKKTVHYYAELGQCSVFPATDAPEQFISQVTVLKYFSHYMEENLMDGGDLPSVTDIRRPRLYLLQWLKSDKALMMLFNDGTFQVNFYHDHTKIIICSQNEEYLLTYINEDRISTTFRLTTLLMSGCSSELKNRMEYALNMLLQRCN

T1 sequence (O14578 whole entry): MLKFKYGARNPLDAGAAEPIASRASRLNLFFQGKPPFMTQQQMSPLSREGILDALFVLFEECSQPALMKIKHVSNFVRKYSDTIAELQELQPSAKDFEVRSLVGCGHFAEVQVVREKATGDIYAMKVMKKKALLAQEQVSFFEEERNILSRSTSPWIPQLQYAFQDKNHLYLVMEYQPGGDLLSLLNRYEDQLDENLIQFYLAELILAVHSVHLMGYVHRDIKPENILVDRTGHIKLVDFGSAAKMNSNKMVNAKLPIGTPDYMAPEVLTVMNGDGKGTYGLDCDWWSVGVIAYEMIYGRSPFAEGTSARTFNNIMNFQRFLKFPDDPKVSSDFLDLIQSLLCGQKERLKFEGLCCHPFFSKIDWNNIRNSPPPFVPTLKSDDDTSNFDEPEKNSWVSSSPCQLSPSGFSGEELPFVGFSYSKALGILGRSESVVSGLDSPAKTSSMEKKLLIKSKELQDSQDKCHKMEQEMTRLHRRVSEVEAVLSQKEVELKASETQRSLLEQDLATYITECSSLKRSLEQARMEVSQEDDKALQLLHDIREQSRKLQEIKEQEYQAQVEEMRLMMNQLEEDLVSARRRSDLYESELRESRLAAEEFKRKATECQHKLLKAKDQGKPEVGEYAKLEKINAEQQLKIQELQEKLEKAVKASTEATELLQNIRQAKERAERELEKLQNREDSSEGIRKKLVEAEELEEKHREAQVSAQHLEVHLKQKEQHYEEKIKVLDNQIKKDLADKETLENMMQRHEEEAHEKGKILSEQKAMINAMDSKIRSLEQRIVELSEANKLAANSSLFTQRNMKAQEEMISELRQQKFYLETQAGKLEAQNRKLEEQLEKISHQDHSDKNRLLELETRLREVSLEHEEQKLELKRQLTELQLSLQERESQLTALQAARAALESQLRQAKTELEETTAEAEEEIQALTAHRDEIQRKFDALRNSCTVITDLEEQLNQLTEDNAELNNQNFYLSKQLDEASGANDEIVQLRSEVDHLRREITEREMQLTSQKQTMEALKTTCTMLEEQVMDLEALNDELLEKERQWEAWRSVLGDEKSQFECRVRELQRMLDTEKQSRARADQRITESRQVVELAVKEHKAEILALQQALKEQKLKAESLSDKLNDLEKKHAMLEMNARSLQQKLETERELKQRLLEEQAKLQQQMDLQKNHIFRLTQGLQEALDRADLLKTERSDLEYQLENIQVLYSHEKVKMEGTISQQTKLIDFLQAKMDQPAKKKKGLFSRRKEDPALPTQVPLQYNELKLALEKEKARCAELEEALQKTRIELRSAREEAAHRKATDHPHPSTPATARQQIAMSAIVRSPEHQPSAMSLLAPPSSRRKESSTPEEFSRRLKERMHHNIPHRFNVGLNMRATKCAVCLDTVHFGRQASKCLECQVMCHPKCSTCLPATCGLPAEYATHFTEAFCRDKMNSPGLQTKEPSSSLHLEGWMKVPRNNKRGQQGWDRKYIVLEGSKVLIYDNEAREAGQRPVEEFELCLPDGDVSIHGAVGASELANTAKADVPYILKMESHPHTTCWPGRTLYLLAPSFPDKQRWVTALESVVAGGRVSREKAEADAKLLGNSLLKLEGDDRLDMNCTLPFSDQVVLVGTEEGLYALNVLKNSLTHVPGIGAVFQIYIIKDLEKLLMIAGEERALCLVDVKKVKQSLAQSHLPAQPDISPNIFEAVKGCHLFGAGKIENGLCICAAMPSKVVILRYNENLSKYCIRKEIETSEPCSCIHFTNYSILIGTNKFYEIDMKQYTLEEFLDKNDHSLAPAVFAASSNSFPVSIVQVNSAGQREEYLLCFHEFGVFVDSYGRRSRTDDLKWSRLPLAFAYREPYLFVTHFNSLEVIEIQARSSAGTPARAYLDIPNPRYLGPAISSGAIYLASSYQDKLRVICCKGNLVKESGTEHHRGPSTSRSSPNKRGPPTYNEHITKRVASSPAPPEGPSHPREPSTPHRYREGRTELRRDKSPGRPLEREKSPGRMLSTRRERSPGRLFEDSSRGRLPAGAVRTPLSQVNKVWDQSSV
Chain of CDK3/Cyclin E (Homo sapiens) (P24864 whole entry, looked up): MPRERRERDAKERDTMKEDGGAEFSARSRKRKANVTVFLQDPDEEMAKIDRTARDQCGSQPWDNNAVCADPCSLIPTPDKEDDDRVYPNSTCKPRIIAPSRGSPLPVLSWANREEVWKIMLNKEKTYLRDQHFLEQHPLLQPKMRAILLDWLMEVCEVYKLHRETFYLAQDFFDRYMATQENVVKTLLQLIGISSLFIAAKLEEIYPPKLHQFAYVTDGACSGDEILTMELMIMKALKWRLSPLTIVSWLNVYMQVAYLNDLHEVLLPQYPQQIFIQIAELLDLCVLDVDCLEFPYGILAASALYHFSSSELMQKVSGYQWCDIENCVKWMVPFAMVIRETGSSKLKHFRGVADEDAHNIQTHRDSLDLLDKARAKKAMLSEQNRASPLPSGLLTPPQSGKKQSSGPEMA
Chain of CDK3/Cyclin E (Homo sapiens) (Q00526 whole entry, looked up): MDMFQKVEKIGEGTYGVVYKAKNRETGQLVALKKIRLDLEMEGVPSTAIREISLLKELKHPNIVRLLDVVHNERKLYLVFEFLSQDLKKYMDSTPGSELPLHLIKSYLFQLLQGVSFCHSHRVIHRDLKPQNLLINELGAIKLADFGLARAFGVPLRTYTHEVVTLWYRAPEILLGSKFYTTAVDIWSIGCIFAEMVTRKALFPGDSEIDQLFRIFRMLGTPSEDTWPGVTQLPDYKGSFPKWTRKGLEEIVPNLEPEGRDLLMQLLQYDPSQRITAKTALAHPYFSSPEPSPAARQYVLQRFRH
Chain of Serine/threonine-protein kinase 32C (Homo sapiens) (Q86UX6 whole entry): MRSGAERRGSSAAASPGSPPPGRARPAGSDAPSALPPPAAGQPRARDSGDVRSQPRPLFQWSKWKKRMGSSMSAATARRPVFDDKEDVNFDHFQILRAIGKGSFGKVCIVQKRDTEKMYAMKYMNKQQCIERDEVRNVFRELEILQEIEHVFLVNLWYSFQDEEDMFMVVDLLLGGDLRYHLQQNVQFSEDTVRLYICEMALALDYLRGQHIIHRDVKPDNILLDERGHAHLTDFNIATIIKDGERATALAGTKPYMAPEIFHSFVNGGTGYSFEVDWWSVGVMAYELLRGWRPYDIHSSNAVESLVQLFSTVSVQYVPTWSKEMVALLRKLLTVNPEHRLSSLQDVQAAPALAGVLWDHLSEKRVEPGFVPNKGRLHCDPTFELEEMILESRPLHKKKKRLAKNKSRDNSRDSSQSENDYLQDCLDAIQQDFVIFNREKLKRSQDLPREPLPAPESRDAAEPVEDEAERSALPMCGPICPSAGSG
Chain of Protein kinase C beta type (Homo sapiens) (P05771 2-671 limits assumed): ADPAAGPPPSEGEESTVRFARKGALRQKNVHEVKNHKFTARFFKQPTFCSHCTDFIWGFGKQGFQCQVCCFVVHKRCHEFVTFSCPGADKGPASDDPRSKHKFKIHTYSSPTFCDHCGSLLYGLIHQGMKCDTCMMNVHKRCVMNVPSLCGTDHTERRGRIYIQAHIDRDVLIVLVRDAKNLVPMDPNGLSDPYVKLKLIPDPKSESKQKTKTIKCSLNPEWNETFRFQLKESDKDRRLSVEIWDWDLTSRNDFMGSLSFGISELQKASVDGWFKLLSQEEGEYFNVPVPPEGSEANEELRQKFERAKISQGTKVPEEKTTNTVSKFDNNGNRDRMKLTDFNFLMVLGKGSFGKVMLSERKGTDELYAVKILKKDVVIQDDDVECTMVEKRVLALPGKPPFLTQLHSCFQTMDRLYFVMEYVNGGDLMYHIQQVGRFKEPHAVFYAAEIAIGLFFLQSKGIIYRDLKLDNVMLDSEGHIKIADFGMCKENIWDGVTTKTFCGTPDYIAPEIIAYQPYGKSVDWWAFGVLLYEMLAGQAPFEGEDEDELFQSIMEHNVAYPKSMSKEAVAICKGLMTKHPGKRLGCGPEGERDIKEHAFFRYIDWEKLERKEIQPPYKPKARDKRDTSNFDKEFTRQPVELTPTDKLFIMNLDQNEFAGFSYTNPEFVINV
Chain of Death-associated protein kinase 2 (Homo sapiens) (Q9UIK4 whole entry, looked up): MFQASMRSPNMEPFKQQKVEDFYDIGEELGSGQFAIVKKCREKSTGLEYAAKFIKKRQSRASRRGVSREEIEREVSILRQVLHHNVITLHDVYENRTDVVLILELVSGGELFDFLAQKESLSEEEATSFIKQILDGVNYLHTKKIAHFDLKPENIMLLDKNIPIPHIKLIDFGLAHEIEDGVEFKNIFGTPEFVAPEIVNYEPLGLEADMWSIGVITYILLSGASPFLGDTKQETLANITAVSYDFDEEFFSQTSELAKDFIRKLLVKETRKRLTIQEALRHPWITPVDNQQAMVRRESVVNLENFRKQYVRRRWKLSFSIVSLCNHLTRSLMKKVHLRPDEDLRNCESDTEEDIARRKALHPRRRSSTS

Question: What does the source list for Cc1cc2c(-c3ccc(NC(=O)[C@H](N)CC(C)(C)C)cc3C)ccnc2[nH]1?
Answer: activity [1]: 113%; activity [2]: 101%; activity [3]: 74%; activity [4]: 104%; activity [5]: 103%; activity [6]: 100%; activity [7]: 94%; activity [8]: 99%; activity [9]: 100%; activity [10]: 94%; activity [11]: 96%; activity [12]: 94%; activity [13]: 112%; activity [14]: 76%; activity [15]: 87%; activity [16]: 107%; activity [17]: 93%; activity [18]: 111%; activity [19]: 93%; activity [20]: 97%; activity [21]: 103%; activity [22]: 88%; activity [23]: 82%; activity [24]: 74%; activity [25]: 118%; activity [26]: 84%; activity [27]: 109%; activity [28]: 72%; activity [29]: 75%; activity [30]: 87%; activity [31]: 93%; activity [32]: 89%; activity [33]: 87%; IC50 [34]: > 10000 nM (not active); activity [35]: 97%; Kd [36]: 0.3 nM (active); activity [37]: 102%; activity [38]: 85%; IC50 [39]: 51 nM (active); activity [40]: 94%
